In patent publication US20240207427A1, “SELECTIVE DRUG RELEASE FROM INTERNALIZED CONJUGATES OF BIOLOGICALLY ACTIVE COMPOUNDS” (priority 2021, published 2024):

Legend:
[1] = tested on: HPAFII cell line (Ag1 upregulated); experiment: In vitro cytotoxicity of Ag1 ADCs, HPAFII cells; format: cell-based; settings: in words, Tables 5a and 5b
Description: In vitro cytotoxicity. The cytotoxicity of a tripeptide-based Antibody Drug Conjugate was measured by a cell proliferation assay employing the protocol described in Promega Corp. Technical Bulletin TB288; and Mendoza et al., 2002, Cancer Res. 62:5485-5488), the methods of which are specifically incorporated by reference herein. Briefly, an aliquot of 40 μl of cell culture containing about 400 cells in medium is deposited in each well of a 384-well, opaque-walled plate. A 10 μL aliquot of free drug or Ligand-Drug Conjugate is added to the experimental wells and incubated for 96 h and are then equilibrated to room temperature for approximately 30 minutes whereupon a volume of CellTiter-Glo™ reagent equal to the volume of cell culture medium present in each well is added. The contents are mixed for 2 minutes on an orbital shaker to induce cell lysis and the plate is incubated at room temperature for 10 minutes to stabilize the luminescence signal for recordation.
The italicized values in Tables 5, 5a, and 5b indicate the percentage of cells remaining after 96 hr incubation at the maximum concentration of drug added. For convenience the numbering for the library members of Tables 5 and 5A are retained for the corresponding Drug linker compounds that are incorporated into the ADC of Tables 5, 5a, and 5b.

[2] = tested on: non-small-cell lung cancer cells (Calu1); experiment: In vitro potency (CellTiter-Glo, 96 h), Calu1; format: cell-based; settings: Homo sapiens, Calu-1, 96 h, read-out: Calu1 IC50
Summary of the method: (§1)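 Seed log-phase cells 24 h (RPMI 1640, 20% FBS); add ADC serial dilutions; incubate 96 h, 37 °C; read luminescence; IC50 in ng/mL.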

[3] = tested on: acute myeloid leukemia cells (MOLM-13); experiment: In vitro potency (CellTiter-Glo, 96 h), MOLM-13; format: cell-based; settings: Homo sapiens, MOLM-13, 96 h, read-out: MOLM-13 IC50, Table 28; CPT free drugs; acute myeloid leukemia cells MOLM-13; 96 h, CellTiter-Glo
Summary of the method: as §1

neutrophil elastase = target: T1, neutrophil elastase (Homo sapiens, UniProt P08246); experiment: Neutrophil elastase assay of ADCs; format: biochemical; settings: 8-load ADC, 37 C, 3 h, pH 7.5, FIG. 6A
T1 sequence (P08246 30-267): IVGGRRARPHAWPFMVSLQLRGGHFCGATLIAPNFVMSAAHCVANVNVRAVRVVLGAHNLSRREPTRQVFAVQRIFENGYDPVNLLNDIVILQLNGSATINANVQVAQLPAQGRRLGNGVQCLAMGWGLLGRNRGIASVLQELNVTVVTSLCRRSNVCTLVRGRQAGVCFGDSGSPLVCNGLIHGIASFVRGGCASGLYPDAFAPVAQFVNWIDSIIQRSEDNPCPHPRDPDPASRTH
Description: To a mixture of 8-load ADC (5 ug), buffer (100 mM tris, 75 mM NaCl, pH 7.5; final concentration), and neutrophil elastase (100 ng) was added water to 20 uL. The reaction was incubated at 37 C for 3 h and then immediately analyzed by a QToF mass spectrometer.

## CC[C@@]1(O)C(=O)OCc2c1cc1n(c2=O)Cc2c-1nc1cc3c(cc1c2CN(C)CCCN)OCO3 [Compound 8, (5S)-14-[[3-aminopropyl(methyl)amino]methyl]-5-ethyl-S-hydroxy-7,18,20-trioxa-11,24-diazahexacyclo [11.11.0.02,11.04,9.015,23.017,21]tetracosa-1(13),2,4(9),14,16,21,23-heptaene-6,10-dione; 2,2,2-trifluoroacetic acid]
[1]
  cytotoxicity compared with comparator dipeptide-based ADC (1): less cytotoxic
  efficacy compared with comparator dipeptide-based ADC (1): similarly efficacious

## CC[C@@]1(O)C(=O)OCc2c1cc1n(c2=O)Cc2c-1nc1cc3c(cc1c2CN)CC=C3 [Compound 5]
[2]
  IC50: 129 nM
[3]
  IC50: 258 nM
Neutrophil elastase
  percentage of drug cleaved from the heavy chain by neutrophil elastase: lower than that found for non-targeted ADC 37
